Results taken from patent publication US7507739B2, “6-[(substituted)phenyl]triazolopyrimidines as anticancer agents” (Wyeth, priority 2003, dated 2009).

Assays:
HeLa cells = experiment: Cell cycle analysis with HeLa cells; type: cell-based, human; conditions: 18 hr
Method: HeLa cells are harvested by trypsinization, washed, counted and distributed to wells of 12-well plates at 125,000 cells per well in 2 mL medium. Cells are cultured overnight. […] Cells are continued in culture for 18 hr after compound addition, then cells in each well are harvested (taking care to recover both adherent and non-adherent cells) and processed using the CycleTEST PLUS kit (Becton Dickinson Immunocytometry Systems, San Jose, Calif.). Flow cytometry is done with a FACSort instrument (Becton Dickinson).
This procedure measures the percentages of cells in a population that are in the G1, S, and G2/M phases of the cell cycle. It utilizes staining of cell nuclei with propidium iodide and analysis by flow cytometry.

pure tubulin = experiment: Tubulin polymerization test with pure tubulin without GTP; type: biochemical, bovine; conditions: no GTP
Method: Medium is RPMI-1640 with L-glutamine, supplemented with 10% heat-inactivated fetal calf serum, 100 units/ml penicillin, and 100 μg/ml streptomycin (Gibco, Grand Island, N.Y.). Microtubule-associated protein (MAP)-rich tubulin, containing about 70% tubulin and 30% MAPs (#ML113), and highly purified tubulin (>99% pure, #TL238), both from bovine brain, are obtained from Cytoskeleton, Inc., Denver, Colo. PEM buffer (80 mM piperazine-N,N′-bis[2-ethanesulfonic acid], pH 6.9, 1 mM ethylene glycol-bis(β-aminoethyl ether)-N,N,N′,N′-tetraacetic acid, 1 mM magnesium chloride) and guanosine 5′-triphosphate (GTP) are also obtained from Cytoskeleton. [3H]paclitaxel, specific activity 14.7 Ci/mmol, is purchased from Moravek Biochemicals (Brea, Calif.). [^3H]vinblastine, specific activity 9.60 Ci/mmol and MicroSpin G-50 columns are obtained from Amersham Biosciences (Piscataway, N.J.). […] Other reagents are obtained from Sigma (St. Louis, Mo.).
Two variations of this procedure are done, one using MAP-rich tubulin and one using pure tubulin.
The procedure with pure tubulin is similar except for the following changes. […] The supernatant after centrifugation is dispensed to a 96-well plate already containing compounds. Each compound is tested in duplicate at six serial 3-fold dilutions starting at 24.3 μM. The plate reader is thermostated at 35°.

COc1cc2c(c(OC)c1OC)-c1ccc(OC)c(=O)cc1[C@@H](NC(C)=O)CC2 [Colchicine, reference compound]
Percent in Cell Cycle Phase >4N (HeLa cells; 5 nM): 2%
Percent in Cell Cycle Phase Apop (HeLa cells; 5 nM): 6%
Percent in Cell Cycle Phase G1 (HeLa cells; 5 nM): 60%
Percent in Cell Cycle Phase G2/M (HeLa cells; 5 nM): 16%
Percent in Cell Cycle Phase S (HeLa cells; 5 nM): 17%
Percent in Cell Cycle Phase >4N (HeLa cells; 10 nM): 2%
Percent in Cell Cycle Phase Apop (HeLa cells; 10 nM): 7%
Percent in Cell Cycle Phase G1 (HeLa cells; 10 nM): 59%
Percent in Cell Cycle Phase S (HeLa cells; 10 nM): 16%
Percent in Cell Cycle Phase >4N (HeLa cells; 15 nM): 2%
Percent in Cell Cycle Phase Apop (HeLa cells; 15 nM): 9%
Percent in Cell Cycle Phase G1 (HeLa cells; 15 nM): 50%
Percent in Cell Cycle Phase G2/M (HeLa cells; 15 nM): 23%
Percent in Cell Cycle Phase S (HeLa cells; 15 nM): 17%
Percent in Cell Cycle Phase >4N (HeLa cells; 17.5 nM): 2%
Percent in Cell Cycle Phase Apop (HeLa cells; 17.5 nM): 9%
Percent in Cell Cycle Phase G1 (HeLa cells; 17.5 nM): 51%
Percent in Cell Cycle Phase G2/M (HeLa cells; 17.5 nM): 21%
Percent in Cell Cycle Phase >4N (HeLa cells; 20 nM): 2%
Percent in Cell Cycle Phase Apop (HeLa cells; 20 nM): 13%
Percent in Cell Cycle Phase G1 (HeLa cells; 20 nM): 40%
Percent in Cell Cycle Phase G2/M (HeLa cells; 20 nM): 28%
Percent in Cell Cycle Phase >4N (HeLa cells; 25 nM): 3%
Percent in Cell Cycle Phase Apop (HeLa cells; 25 nM): 14%
Percent in Cell Cycle Phase G1 (HeLa cells; 25 nM): 36%
Percent in Cell Cycle Phase G2/M (HeLa cells; 25 nM): 27%
Percent in Cell Cycle Phase S (HeLa cells; 25 nM): 20%
Percent in Cell Cycle Phase >4N (HeLa cells; 30 nM): 3%
Percent in Cell Cycle Phase Apop (HeLa cells; 30 nM): 14%
Percent in Cell Cycle Phase G1 (HeLa cells; 30 nM): 27%
Percent in Cell Cycle Phase G2/M (HeLa cells; 30 nM): 36%
Percent in Cell Cycle Phase S (HeLa cells; 30 nM): 20%
Percent in Cell Cycle Phase >4N (HeLa cells; 40 nM): 4%
Percent in Cell Cycle Phase Apop (HeLa cells; 40 nM): 11%
Percent in Cell Cycle Phase G1 (HeLa cells; 40 nM): 16%
Percent in Cell Cycle Phase G2/M (HeLa cells; 40 nM): 48%
Percent in Cell Cycle Phase S (HeLa cells; 40 nM): 22%
Percent in Cell Cycle Phase >4N (HeLa cells; 50 nM): 4%
Percent in Cell Cycle Phase Apop (HeLa cells; 50 nM): 11%
Percent in Cell Cycle Phase G1 (HeLa cells; 50 nM): 11%
Percent in Cell Cycle Phase G2/M (HeLa cells; 50 nM): 56%
Percent in Cell Cycle Phase >4N (HeLa cells; 100 nM): 3%
Percent in Cell Cycle Phase Apop (HeLa cells; 100 nM): 15%
Percent in Cell Cycle Phase G1 (HeLa cells; 100 nM): 11%
Percent in Cell Cycle Phase G2/M (HeLa cells; 100 nM): 55%
Percent in Cell Cycle Phase S (HeLa cells; 100 nM): 16%

CC(=O)O[C@@]12CO[C@@H]1C[C@H](O)[C@@]1(C)C(=O)[C@H](O)C3=C(C)[C@@H](OC(=O)[C@H](O)[C@@H](NC(=O)OC(C)(C)C)c4ccccc4)C[C@@](O)([C@@H](OC(=O)c4ccccc4)[C@H]21)C3(C)C [Docetaxel, reference compound]
absorbance increase, polymerization of pure tubulin (pure tubulin; 0.1 μM): small increase in absorbance
A340 at 0 min (pure tubulin; 24.3 μM): 0
A340 at 5 min (pure tubulin; 24.3 μM): 0.20
A340 at 10 min (pure tubulin; 24.3 μM): 0.20
A340 at 15 min (pure tubulin; 24.3 μM): 0.20
A340 at 20 min (pure tubulin; 24.3 μM): 0.20
absorbance increase, polymerization of pure tubulin (pure tubulin; 24.3 μM, first 5 min): rapid increase in absorbance
Percent in Cell Cycle Phase >4N (HeLa cells; 0.25 nM): 2%
Percent in Cell Cycle Phase Apop (HeLa cells; 0.25 nM): 8%
Percent in Cell Cycle Phase G1 (HeLa cells; 0.25 nM): 58%
Percent in Cell Cycle Phase G2/M (HeLa cells; 0.25 nM): 16%
Percent in Cell Cycle Phase S (HeLa cells; 0.25 nM): 17%
Percent in Cell Cycle Phase >4N (HeLa cells; 0.5 nM): 2%
Percent in Cell Cycle Phase Apop (HeLa cells; 0.5 nM): 19%
Percent in Cell Cycle Phase G1 (HeLa cells; 0.5 nM): 48%
Percent in Cell Cycle Phase G2/M (HeLa cells; 0.5 nM): 14%
Percent in Cell Cycle Phase S (HeLa cells; 0.5 nM): 18%
Percent in Cell Cycle Phase >4N (HeLa cells; 1 nM): 2%
Percent in Cell Cycle Phase Apop (HeLa cells; 1 nM): 35%
Percent in Cell Cycle Phase G1 (HeLa cells; 1 nM): 35%
Percent in Cell Cycle Phase G2/M (HeLa cells; 1 nM): 14%
Percent in Cell Cycle Phase S (HeLa cells; 1 nM): 15%
Percent in Cell Cycle Phase >4N (HeLa cells; 2 nM): 2%
Percent in Cell Cycle Phase Apop (HeLa cells; 2 nM): 48%
Percent in Cell Cycle Phase G1 (HeLa cells; 2 nM): 19%
Percent in Cell Cycle Phase G2/M (HeLa cells; 2 nM): 14%
Percent in Cell Cycle Phase S (HeLa cells; 2 nM): 18%
Percent in Cell Cycle Phase >4N (HeLa cells; 3 nM): 2%
Percent in Cell Cycle Phase Apop (HeLa cells; 3 nM): 52%
Percent in Cell Cycle Phase G1 (HeLa cells; 3 nM): 15%
Percent in Cell Cycle Phase G2/M (HeLa cells; 3 nM): 14%
Percent in Cell Cycle Phase S (HeLa cells; 3 nM): 17%
Percent in Cell Cycle Phase >4N (HeLa cells; 4 nM): 2%
Percent in Cell Cycle Phase Apop (HeLa cells; 4 nM): 49%
Percent in Cell Cycle Phase G1 (HeLa cells; 4 nM): 12%
Percent in Cell Cycle Phase G2/M (HeLa cells; 4 nM): 22%
Percent in Cell Cycle Phase S (HeLa cells; 4 nM): 16%
Percent in Cell Cycle Phase >4N (HeLa cells; 5 nM): 3%
Percent in Cell Cycle Phase Apop (HeLa cells; 5 nM): 42%
Percent in Cell Cycle Phase G1 (HeLa cells; 5 nM): 9%
Percent in Cell Cycle Phase G2/M (HeLa cells; 5 nM): 31%
Percent in Cell Cycle Phase S (HeLa cells; 5 nM): 17%
Percent in Cell Cycle Phase >4N (HeLa cells; 6 nM): 4%
Percent in Cell Cycle Phase Apop (HeLa cells; 6 nM): 37%
Percent in Cell Cycle Phase G1 (HeLa cells; 6 nM): 10%
Percent in Cell Cycle Phase G2/M (HeLa cells; 6 nM): 33%
Percent in Cell Cycle Phase S (HeLa cells; 6 nM): 17%
Percent in Cell Cycle Phase >4N (HeLa cells; 8 nM): 4%
Percent in Cell Cycle Phase Apop (HeLa cells; 8 nM): 29%
Percent in Cell Cycle Phase G1 (HeLa cells; 8 nM): 7%
Percent in Cell Cycle Phase G2/M (HeLa cells; 8 nM): 48%
Percent in Cell Cycle Phase S (HeLa cells; 8 nM): 11%
Percent in Cell Cycle Phase >4N (HeLa cells; 10 nM): 4%
Percent in Cell Cycle Phase Apop (HeLa cells; 10 nM): 35%
Percent in Cell Cycle Phase G1 (HeLa cells; 10 nM): 9%
Percent in Cell Cycle Phase G2/M (HeLa cells; 10 nM): 37%
Percent in Cell Cycle Phase S (HeLa cells; 10 nM): 16%
Percent in Cell Cycle Phase >4N (HeLa cells; 20 nM): 3%
Percent in Cell Cycle Phase Apop (HeLa cells; 20 nM): 38%
Percent in Cell Cycle Phase G1 (HeLa cells; 20 nM): 8%
Percent in Cell Cycle Phase G2/M (HeLa cells; 20 nM): 40%
Percent in Cell Cycle Phase S (HeLa cells; 20 nM): 12%
